From patent publication US20230051589A1, “COMPOUNDS AND COMPOSITIONS FOR TREATING CONDITIONS ASSOCIATED WITH NLRP ACTIVITY” (Novartis AG, priority 2018, published 2023) come the findings set out here.

A value given as a limit tells only on which side of the number the result lay.

The subject of one experiment is IL-1β production in PMA-differentiated THP-1 cells. Nature of the experiment: IL-1β production in PMA-differentiated THP-1 cells stimulated with gramicidin (hTHP-1 assay, 2% fetal bovine serum; Procedures 1-3). As to conditions: Homo sapiens, THP-1, hTHP-1 assay containing 2% fetal bovine serum, Table B2, class symbols; read-out: IC50. Format: cell-based, human. The gist of the method:
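PMA-primed THP-1 cells (20 ng/ml PMA, 16-18 h) in RPMI with 2% FBS were pre-incubated with compounds for 1 h, from 100 μM downward in 3-fold steps (0.37% DMSO final), then stimulated with 5 μM gramicidin for 2 h. IL-1β in the supernatant was quantified by HTRF.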
Consider `CN(C)C(c1ccc(S(N)(=O)=NC(=O)Nc2c3c(cc4c2CCC4)CCC3)cc1)C(F)(F)F` (stereo not drawn) [Example 492, 4-(1-(Dimethylamino)-2,2,2-trifluoroethyl)-N′-((1,2,3,5,6,7-hexahydro-s-indacen-4-yl)carbamoyl)benzenesulfonimidamide], for which the IC50 was in the range of 1000 to 5000 nM.
The same measure, in the same setting: as for `NS(=O)(=NC(=O)Nc1c2c(cc3c1CCC3)CCC2)c1ccc(OC(F)F)cc1` (stereo not drawn) [Example 493, 4-(Difluoromethoxy)-N′-((1,2,3,5,6,7-hexahydro-s-indacen-4-yl)carbamoyl) benzenesulfonimidamide], the figure is 5000 to 30000 nM; as for `CC(C)c1cc2c(cc1NC(=O)N=S(N)(=O)c1cnc(C(C)(C)O)s1)CCC2` (stereo not drawn) [Example 494, 2-(2-Hydroxypropan-2-yl)-N′-((6-isopropyl-2,3-dihydro-1H-inden-5-yl)earbamoyl)thiazole-5-sulfonimidamide], 200 to 1000 nM; as for `CNCC1(c2ccc(S(N)(=O)=NC(=O)Nc3c4c(cc5c3CCC5)CCC4)c(F)c2)CC1` (stereo not drawn) [Example 495, 2-Fluoro-N′-((1,2,3,5,6,7-hexahydro-s-indacen-4-yl)carbamoyl)-4-(1-((methylamino)methyl)cyclopropyl)benzenesulfonimidamide], 1000 to 5000 nM.
Same read-out and setting: as for `CN(C)Cc1cnc(S(N)(=O)=NC(=O)Nc2c3c(cc4c2CCC4)CCC3)c(F)c1` (stereo not drawn) [Example 497, 5-((Dimethylamino)methyl)-3-fluoro-N′-((1,2,3,5,6,7-hexahydro-s-indacen-4-yl)carbamoyl)pyridine-2-sulfonimidamide], the figure is 1000 to 5000 nM; as for `CC(C)(O)c1csc(S(N)(=O)=NC(=O)Nc2c3c(c(C#N)c4c2CCC4)CCC3)n1` (stereo not drawn) [Example 499, N′-((8-Cyano-1,2,3,5,6,7-hexahydro-s-indacen-4-yl)carbamoyl)-4-(2-hydroxypropan-2-yl)thiazole-2-sulfonimidamide], 40 to 200 nM; as for `NS(=O)(=NC(=O)Nc1c2c(cc3c1CCC3)CCC2)c1cccc(CN2CCOCC2)c1` (stereo not drawn) [Example 503, N′-((1,2,3,5,6,7-hexahydro-s-indacen-4-yl)carbamoyl)-3-(morpholinomethyl)benzenesulfonimidamide], 1000 to 5000 nM.
On the same count and under the same terms, next, `COCCN(C)Cc1cccc(S(N)(=O)=NC(=O)Nc2c3c(cc4c2CCC4)CCC3)c1` (stereo not drawn) [Example 504]: 5000 to 30000 nM.
Consider `CN1CCN(Cc2cccc(S(N)(=O)=NC(=O)Nc3c4c(cc5c3CCC5)CCC4)c2)CC1` (stereo not drawn) [Example 505, N′-((1,2,3,5,6,7-hexahydro-s-indacen-4-yl)carbamoyl)-3-((4-methylpiperazin-1-yl)methyl) benzenesulfonimidamide], for which the IC50 was in the range of 5000 to 30000 nM.
On the same count and under the same terms, next, `CN(C)CCN(C)Cc1cccc(S(N)(=O)=NC(=O)Nc2c3c(cc4c2CCC4)CCC3)c1` (stereo not drawn) [Example 506, 3-(((2-(Dimethylamino)ethyl) (methyl)amino)methyl)-N′-((1,2,3,5,6,7-hexahydro-s-indacen-4-yl)carbamoyl)benzenesulfonimidamide]: 5000 to 30000 nM; `CN(Cc1cccc(S(N)(=O)=NC(=O)Nc2c3c(cc4c2CCC4)CCC3)c1)CC1CC1` (stereo not drawn) [Example 507, 3-(((Cyclopropylmethyl) (methyl)amino)methyl)-N′-((1,2,3,5,6,7-hexahydro-s-indacen-4-yl)carbamoyl)benzenesulfonimidamide]: 5000 to 30000 nM.
On the same count and under the same terms, next, `CNCc1cccc(S(N)(=O)=NC(=O)Nc2c3c(cc4c2CCC4)CCC3)c1` (stereo not drawn) [Example 508, N′-((1,2,3,5,6,7-hexahydro-s-indacen-4-yl)carbamoyl)-3-((methylamino)methyl) benzenesulfonimidamide]: 5000 to 30000 nM.
On the same count and under the same terms, next, `CC(C)(O)c1cnc([S@](N)(=O)=NC(=O)Nc2c3c(cc4c2C(O)CC4)CCC3)s1` (stereo partly drawn) [Example 510, (R)-N′-((3-hydroxy-1,2,3,5,6,7-hexahydro-s-indacen-4-yl)carbamoyl)-5-(2-hydroxypropan-2-yl)thiazole-2-sulfonimidamide]: 200 to 1000 nM; `CC(C)(O)c1cnc([S@](N)(=O)=NC(=O)Nc2c3c(cc4c2CCC4O)CCC3)s1` (stereo partly drawn) [Example 512, (R)-N′-((1-hydroxy-1,2,3,5,6,7-hexahydro-s-indacen-4-yl)carbamoyl)-5-(2-hydroxypropan-2-yl)thiazole-2-sulfonimidamide]: 1000 to 5000 nM.
For the molecule `CCCc1c2c(c(NC(=O)N=S(N)(=O)c3cc(C(C)(C)O)n(-c4ccccc4)n3)c3c1CCC3)CCC2` (stereo not drawn) [Example 513, 5-(2-hydroxypropan-2-yl)-1-phenyl-N′-((8-propyl-1,2,3,5,6,7-hexahydro-s-indacen-4-yl)carbamoyl)-1H-pyrazole-3-sulfonimidamide], the IC50 was in the range of 5000 to 30000 nM.
Same read-out and setting: as for `CC(C)(O)c1ncc([S@](N)(=O)=NC(=O)Nc2cc(CCCl)cc3c2CCC3)s1` [Example 514, (R)-N′-((6-(2-chloroethyl)-2,3-dihydro-1H-inden-4-yl)carbamoyl)-2-(2-hydroxypropan-2-yl)thiazole-5-sulfonimidamide], the figure is 1000 to 5000 nM.
In the case of `CNCc1cc(F)c(S(N)(=O)=NC(=O)Nc2c3c(cc4c2CC4)CCC3)s1` (stereo not drawn) [Example 669, 3-Fluoro-5-((methylamino)methyl)-N′-((2,4,5,6-tetrahydro-1H-cyclobuta[f]inden-3-yl)carbamoyl)thiophene-2-sulfonimidamide], the half-maximal inhibitory concentration (IC50) fell in the range of 40 to 200 nM.
The same measure, in the same setting: as for `C[C@@](O)(CN)c1ncc(S(N)(=O)=NC(=O)Nc2c3c(cc4c2CCC4)CCC3)s1` (stereo partly drawn) [Example 673, 2-((R)-1-amino-2-hydroxypropan-2-yl)-N′-((1,2,3,5,6,7-hexahydro-s-indacen-4-yl)carbamoyl)thiazole-5-sulfonimidamide], the figure is 40 to 200 nM.
As to `C[C@]1(c2ncc(S(N)(=O)=NC(=O)Nc3c4c(cc5c3CCC5)CCC4)s2)CNC(=O)O1` (stereo partly drawn) [Example 674, N′-((1,2,3,5,6,7-hexahydro-s-indacen-4-yl)carbamoyl)-2-((R)-5-methyl-2-oxooxazolidin-5-yl)thiazole-5-sulfonimidamide], the IC50 lay in the range of 40 to 200 nM.
`CC(=O)NC[C@@](C)(O)c1ncc(S(N)(=O)=NC(=O)Nc2c3c(cc4c2CCC4)CCC3)s1` (stereo partly drawn) [Example 675, N-((2R)-2-(5-(N′-((1,2,3,5,6,7-hexahydro-s-indacen-4-yl)carbamoyl)sulfamidimidoyl)thiazol-2-yl)-2-hydroxypropyl)acetamide]: the half-inhibitory concentration (IC50) fell in the range of 40 to 200 nM.
In the case of `CC(C)(C)OC(=O)NC[C@@](C)(O)c1ncc(S(N)(=O)=NC(=O)Nc2c3c(cc4c2CCC4)CCC3)s1` (stereo partly drawn) [Example 676, Tert-butyl ((2R)-2-(5-(N′-((1,2,3,5,6,7-hexahydro-s-indacen-4-yl)carbamoyl)sulfamidimidoyl)thiazol-2-yl)-2-hydroxypropyl)carbamate], the IC50 lay in the range of 40 to 200 nM.
For `C[C@@](O)(COCCO)c1ncc(S(N)(=O)=NC(=O)Nc2c3c(cc4c2CCC4)CCC3)s1` (stereo partly drawn) [Example 677, N′-((1,2,3,5,6,7-hexahydro-s-indacen-4-yl)carbamoyl)-2-((R)-2-hydroxy-1-(2-hydroxyethoxy)propan-2-yl)thiazole-5-sulfonimidamide], the IC50 was in the range of 40 to 200 nM.
Same read-out and setting: next, `N#Cc1c2c(c(NC(=O)N=S(N)(=O)c3cnc(C(O)(CO)CO)s3)c3c1CCC3)CCC2` (stereo not drawn) [Example 678, N′-((8-cyano-1,2,3,5,6,7-hexahydro-s-indacen-4-yl)carbamoyl)-2-(1,2,3-trihydroxypropan-2-yl)thiazole-5-sulfonimidamide]: 5000 to 30000 nM; `COCc1nc(C(C)(C)O)sc1S(N)(=O)=NC(=O)Nc1c2c(c(C#N)c3c1CCC3)CCC2` (stereo not drawn) [Example 679, N′-((8-cyano-1,2,3,5,6,7-hexahydro-s-indacen-4-yl)carbamoyl)-2-(2-hydroxypropan-2-yl)-4-(methoxymethyl)thiazole-5-sulfonimidamide]: 200 to 1000 nM; `CC(C)(O)c1ccnc(S(N)(=O)=NC(=O)Nc2c3c(c(C#N)c4c2CCC4)CCC3)c1` (stereo not drawn) [Example 681, N′-((8-cyano-1,2,3,5,6,7-hexahydro-s-indacen-4-yl)carbamoyl)-4-(2-hydroxypropan-2-yl)pyridine-2-sulfonimidamide]: 200 to 1000 nM.

The same experiment, now with this note: Homo sapiens, THP-1, hTHP-1 assay containing 2% fetal bovine serum, Table B2, given as bound; read-out: IC50.
For `CC(C)(O)c1cnc([S@@](N)(=O)=NC(=O)Nc2c3c(cc4c2CCC4O)CCC3)s1` (stereo partly drawn) [Example 509, (S)-N′-((1-hydroxy-1,2,3,5,6,7-hexahydro-s-indacen-4-yl)carbamoyl)-5-(2-hydroxypropan-2-yl)thiazole-2-sulfonimidamide], the IC50 is more than 30000 nM.
The same measure, in the same setting: as for `CC(C)(O)c1cnc([S@@](N)(=O)=NC(=O)Nc2c3c(cc4c2C(O)CC4)CCC3)s1` (stereo partly drawn) [Example 511, (S)-N′-((3-hydroxy-1,2,3,5,6,7-hexahydro-s-indacen-4-yl)carbamoyl)-5-(2-hydroxypropan-2-yl)thiazole-2-sulfonimidamide], the figure is more than 30000 nM.

Staying with this experiment, now noted: hTHP-1 assay containing 2% fetal bovine serum, Table B2, class symbols; read-out: IC50.
In the case of `NS(=O)(=NC(=O)Nc1c2c(cc3c1CCC3)CCC2)c1ccc(C2CCNC2)cc1F` (stereo not drawn) [Example 500, 2-Fluoro-N′-((1,2,3,5,6,7-hexahydro-s-indacen-4-yl)carbamoyl)-4-(pyrrolidin-3-yl)benzenesulfonimidamide], the IC50 is 5000 to 30000 nM.
With `CC(O)(CO)c1cc(F)c(S(N)(=O)=NC(=O)Nc2c3c(c(C#N)c4c2CCC4)CCC3)s1` [Example 631, (R,S) and (S,S)-N′-((8-cyano-1,2,3,5,6,7-hexahydro-s-indacen-4-yl)carbamoyl)-5-(1,2-dihydroxypropan-2-yl)-3-fluorothiophene-2-sulfonimidamide], the IC50 fell in the range of 1000 to 5000 nM.
On the same count and under the same terms, next, `CC(C)(O)c1cnc(S(N)(=O)=NC(=O)Nc2c3c(cc4c2CCC4=O)CCC3)s1` (stereo not drawn) [Example 680, 5-(2-Hydroxypropan-2-yl)-N′-((1-oxo-1,2,3,5,6,7-hexahydro-s-indacen-4-yl)carbamoyl)thiazole-2-sulfonimidamide]: 8 to 40 nM.

By IC50 is commonly meant the concentration that inhibits the measured activity by half.
